In test [1] the target is T1, Nitric oxide synthase 3 (Bos taurus) (UniProt P29473).
T1 sequence (whole entry): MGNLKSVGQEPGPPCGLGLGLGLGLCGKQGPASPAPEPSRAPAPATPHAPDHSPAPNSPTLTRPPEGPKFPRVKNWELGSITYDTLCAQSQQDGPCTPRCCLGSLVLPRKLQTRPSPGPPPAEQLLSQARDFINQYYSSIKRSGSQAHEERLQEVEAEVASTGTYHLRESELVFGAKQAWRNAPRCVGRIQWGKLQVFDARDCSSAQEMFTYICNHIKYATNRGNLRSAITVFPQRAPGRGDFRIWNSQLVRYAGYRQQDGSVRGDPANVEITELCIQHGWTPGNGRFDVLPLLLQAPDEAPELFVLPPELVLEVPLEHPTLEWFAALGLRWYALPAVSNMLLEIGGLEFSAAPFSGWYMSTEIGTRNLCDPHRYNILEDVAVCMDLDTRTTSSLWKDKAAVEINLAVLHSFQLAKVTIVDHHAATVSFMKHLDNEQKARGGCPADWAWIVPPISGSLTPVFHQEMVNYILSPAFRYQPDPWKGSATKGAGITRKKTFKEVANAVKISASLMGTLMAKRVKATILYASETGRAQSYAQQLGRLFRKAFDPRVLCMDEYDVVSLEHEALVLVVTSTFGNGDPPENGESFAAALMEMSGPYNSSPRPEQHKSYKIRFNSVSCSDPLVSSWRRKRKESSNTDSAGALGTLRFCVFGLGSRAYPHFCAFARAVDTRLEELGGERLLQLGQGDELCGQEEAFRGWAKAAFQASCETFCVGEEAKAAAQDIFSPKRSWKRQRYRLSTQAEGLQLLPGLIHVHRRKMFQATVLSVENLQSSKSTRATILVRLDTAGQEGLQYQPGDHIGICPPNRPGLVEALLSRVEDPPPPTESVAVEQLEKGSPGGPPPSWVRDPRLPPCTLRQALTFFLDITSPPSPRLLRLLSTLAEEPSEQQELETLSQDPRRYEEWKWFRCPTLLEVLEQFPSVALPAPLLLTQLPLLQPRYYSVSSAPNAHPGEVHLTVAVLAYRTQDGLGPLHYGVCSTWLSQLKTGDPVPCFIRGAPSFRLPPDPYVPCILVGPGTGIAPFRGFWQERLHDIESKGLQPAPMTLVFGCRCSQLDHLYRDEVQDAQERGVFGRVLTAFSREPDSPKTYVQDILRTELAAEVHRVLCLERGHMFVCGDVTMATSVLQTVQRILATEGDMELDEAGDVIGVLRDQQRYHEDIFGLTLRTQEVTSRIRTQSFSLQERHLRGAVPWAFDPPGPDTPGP
Put plainly: Compound was tested for the percent inhibition of nitric oxide synthase (e) using [14C]L-citrulline as radioligand. The note with it: concentration not given here.

In test [2] the target is T2, Nitric oxide synthase, inducible (Mus musculus) (UniProt P29477).
T2 sequence (whole entry): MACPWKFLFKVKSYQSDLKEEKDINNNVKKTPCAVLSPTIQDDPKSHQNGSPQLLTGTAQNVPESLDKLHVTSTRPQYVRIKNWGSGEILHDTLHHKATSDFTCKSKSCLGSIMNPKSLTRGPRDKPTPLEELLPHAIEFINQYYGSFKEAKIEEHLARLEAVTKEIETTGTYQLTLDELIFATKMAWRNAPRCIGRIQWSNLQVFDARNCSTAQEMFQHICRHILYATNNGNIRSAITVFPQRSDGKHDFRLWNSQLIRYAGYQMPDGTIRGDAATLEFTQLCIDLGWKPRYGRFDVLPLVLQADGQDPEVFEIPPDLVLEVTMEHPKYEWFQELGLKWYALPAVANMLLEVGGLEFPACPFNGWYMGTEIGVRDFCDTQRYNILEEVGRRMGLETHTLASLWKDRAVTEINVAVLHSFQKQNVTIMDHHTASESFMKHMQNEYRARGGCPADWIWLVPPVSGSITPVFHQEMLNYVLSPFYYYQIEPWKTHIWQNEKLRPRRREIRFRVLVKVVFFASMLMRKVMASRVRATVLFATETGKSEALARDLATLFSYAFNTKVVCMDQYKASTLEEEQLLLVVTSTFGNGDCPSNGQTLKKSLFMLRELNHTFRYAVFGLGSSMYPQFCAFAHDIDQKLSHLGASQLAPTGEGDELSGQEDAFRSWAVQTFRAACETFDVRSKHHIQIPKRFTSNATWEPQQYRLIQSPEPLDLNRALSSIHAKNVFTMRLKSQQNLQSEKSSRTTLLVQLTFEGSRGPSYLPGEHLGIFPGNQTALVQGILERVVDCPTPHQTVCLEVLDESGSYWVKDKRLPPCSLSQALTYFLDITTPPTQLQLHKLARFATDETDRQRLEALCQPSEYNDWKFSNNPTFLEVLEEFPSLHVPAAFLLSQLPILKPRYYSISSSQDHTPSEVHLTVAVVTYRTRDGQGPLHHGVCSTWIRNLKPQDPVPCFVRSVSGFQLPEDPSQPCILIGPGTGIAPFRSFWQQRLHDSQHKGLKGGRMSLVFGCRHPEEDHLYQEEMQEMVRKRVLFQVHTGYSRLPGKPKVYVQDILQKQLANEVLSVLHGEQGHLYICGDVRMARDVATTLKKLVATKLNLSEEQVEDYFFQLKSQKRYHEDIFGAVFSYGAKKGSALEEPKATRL
Put plainly: Compound was tested for the percent inhibition of nitric oxide synthase (i) using [14C]L-citrulline as radioligand. The note with it: concentration not given here.

For test [3], the target named is T3, Nitric oxide synthase, inducible (Mus musculus, UniProt P29477).
T3 sequence (P29477 whole entry): T2 sequence (whole entry)
Put plainly: Compound was tested for the competitive inhibition of nitric oxide synthase (i) using [14C]L-citrulline as radioligand. value ranges from 3.6-9 uM.

In test [4] the target is Nitric oxide synthase 1 (Rattus norvegicus) (UniProt P29476). Put plainly: Compound was tested for the percent inhibition of nitric oxide synthase (n) using [14C]L-citrulline as radioligand. The note with it: concentration not given here.
A further test has as its target Nitric oxide synthase 1 (Rattus norvegicus, UniProt P29476). Briefly: Compound was tested for the competitive inhibition of nitric oxide synthase (n) using [14C]L-citrulline as radioligand.; value ranges from 0.06-2 uM.

Drawing on ChEMBL document CHEMBL1132725, “Evaluation of new L-thiocitrulline derivatives as inhibitors of nitric oxide synthase” (Bioorg Med Chem Lett, 2000), this text covers inhibition and Ki for 4 compounds.

A value given as a limit tells only on which side of the number the result lay.

Broadly, the inhibition is how much of the control response was suppressed. Low values mean a weak effect, high ones a strong effect. The Ki is the equilibrium dissociation constant of an inhibitor or competing ligand from its target. High values mean weaker binding, low ones tighter binding.

Sequence of Nitric oxide synthase 1 (Rattus norvegicus) (P29476 whole entry): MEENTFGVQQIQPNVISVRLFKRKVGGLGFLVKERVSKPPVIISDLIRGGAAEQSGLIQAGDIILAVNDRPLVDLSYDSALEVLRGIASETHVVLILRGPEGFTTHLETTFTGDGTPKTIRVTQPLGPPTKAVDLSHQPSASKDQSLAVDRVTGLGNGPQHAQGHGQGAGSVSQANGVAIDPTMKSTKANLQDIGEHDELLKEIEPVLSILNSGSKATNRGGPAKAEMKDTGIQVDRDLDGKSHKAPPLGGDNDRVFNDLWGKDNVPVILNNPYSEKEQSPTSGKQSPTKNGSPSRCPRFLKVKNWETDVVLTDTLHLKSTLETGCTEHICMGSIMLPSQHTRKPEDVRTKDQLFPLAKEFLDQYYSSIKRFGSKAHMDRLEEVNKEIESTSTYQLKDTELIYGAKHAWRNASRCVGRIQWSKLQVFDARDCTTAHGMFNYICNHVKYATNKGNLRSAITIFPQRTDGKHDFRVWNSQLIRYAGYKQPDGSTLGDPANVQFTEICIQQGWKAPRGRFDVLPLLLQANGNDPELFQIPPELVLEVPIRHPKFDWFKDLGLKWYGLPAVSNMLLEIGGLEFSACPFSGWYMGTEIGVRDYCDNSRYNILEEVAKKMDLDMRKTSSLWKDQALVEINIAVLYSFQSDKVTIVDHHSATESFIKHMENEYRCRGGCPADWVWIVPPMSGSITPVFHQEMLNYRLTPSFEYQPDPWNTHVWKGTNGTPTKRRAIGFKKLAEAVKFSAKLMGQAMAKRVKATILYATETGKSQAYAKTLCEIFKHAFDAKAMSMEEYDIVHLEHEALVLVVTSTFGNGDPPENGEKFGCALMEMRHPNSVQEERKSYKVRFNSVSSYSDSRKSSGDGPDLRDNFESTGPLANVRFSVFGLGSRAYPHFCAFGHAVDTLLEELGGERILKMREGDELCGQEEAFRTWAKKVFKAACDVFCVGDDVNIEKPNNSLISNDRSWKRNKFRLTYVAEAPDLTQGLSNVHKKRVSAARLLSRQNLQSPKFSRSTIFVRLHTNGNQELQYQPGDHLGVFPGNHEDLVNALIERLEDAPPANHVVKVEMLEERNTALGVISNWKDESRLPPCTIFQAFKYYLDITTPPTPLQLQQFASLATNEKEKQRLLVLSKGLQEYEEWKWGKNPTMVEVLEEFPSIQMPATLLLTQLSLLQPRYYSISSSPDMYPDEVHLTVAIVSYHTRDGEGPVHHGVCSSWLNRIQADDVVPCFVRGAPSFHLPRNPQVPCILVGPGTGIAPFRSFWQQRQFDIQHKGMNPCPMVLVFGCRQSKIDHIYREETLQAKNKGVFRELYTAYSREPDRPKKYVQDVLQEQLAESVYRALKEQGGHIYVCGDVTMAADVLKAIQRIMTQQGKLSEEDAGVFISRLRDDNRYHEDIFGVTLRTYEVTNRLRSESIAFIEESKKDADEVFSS
Sequence of Nitric oxide synthase 1 (P29476 whole entry): as above

For `N/C(S)=N/CCC[C@H](N)C(=O)O`, the inhibition in test [1], in test [2] and in test [4] was over 99% in each case. Besides, the inhibition constant (Ki) in test [3] stood at 3.6 µM; on Nitric oxide synthase 1, 0.06 µM.

As for `CCOP(=S)(NCCC[C@H](N)C(=O)O)OCC`, in test [2], the inhibition was under 10%.

Take `CSC(=NCCC[C@H](N)C(=O)O)SC`: the inhibition is 46% in test [1], 56% in test [2] and 39% in test [4].

`CS/C(S)=N/CCC[C@H](N)C(=O)O`: the inhibition in test [1] is 25%; in test [2], 54%; in test [4], 27%.
